Experimental data taken from patent publication US8299031B2, “Human semen enhancer of viral infection peptides (SEVI) and their use” (Viro Pharmaceuticals GmbH & Co. KG, priority 2006, dated 2012).
Like-named read-outs stand apart in the source and are kept apart here. Ends that are not written are not given here.

Experiments:
HIV-1 NL4-3 [1] = test: HIV-1 infection rate of CEMX174 5.25 M7 cells (GFP UV microscopy and luciferase); type: cell-based; details: CEMX174 5.25 M7, 0.3 ng p24, 2 days
Protocol: The rate of virus infection was detected after 2 days by performing first UV microscopy (FIG. 10A) and thereafter by measuring luciferase activities of cell lysates of the same samples (FIG. 10B). […] After infection of control samples containing no peptide, 2.6% of the cells expressed GFP corresponding to luciferase activities of 44,457 RLU/s (FIG. 10). In the presence of 2 μg/ml SEVI the average infection rates were nearly doubled to 4.6% (66,327 RLU/s). At the highest concentration of 50 μg/ml more than 99% of the cells became infected by HIV-1. Median luciferase activities in those samples were 1,701,156 RLU/s, corresponding to a 38 fold increase of infection (1,701,156 RLU/s divided by 44,457 RLU/s of control cells).
FIG. 10. […] The rate of virus infection was detected after 2 days by performing UV microscopy (A) or by measuring luciferase activity of cellular lysates (B). RLU/s: relative light units per second.

SIVmac239 = type: cell-based, SIV; details: TZM-bl
HIV-1 = test: Preincubation of virus stock with SEVI and 50-fold dilution into cell culture; type: cell-based; details: diluted 50-fold
Protocol: SEVI could bind to viral particles and increase their infectivity, or enhance the susceptibility of target cells to HIV-1 infection. To distinguish between these possibilities, we preincubated the virus stock with various concentrations of fibrilar PAP(248-286) for 5 min in a small volume and subsequently added the virus/SEVI mixture to the cell culture, thereby diluting it 50-fold. For comparison, SEVI was directly added to the cell culture and subsequently infected with the same viral dose. […] In relation to the final peptide concentration in the infected culture, viral infectivity was enhanced by 50-fold (FIG. 17A, right).
(§1) FIG. 17. SEVI interacts with the HIV-1 particle and enhances its binding to the cell. A) Interaction of SEVI with HIV-1. SEVI was either preincubated with the virus stock in a small volume and subsequently added to the cells (□) or SEVI and the HIV-1 stocks were added separately to the cells (▪). The SEVI concentrations during incubation with the virus stocks are shown in the left panel and the concentrations relating to the total cell culture in the right panels. B) SEVI enhances binding of wildtype and Env-defective viral particles to the cells. u, uninfected cells. Data represent average values±s.d. (n=3).

HIV-1 particles = test: Binding of viral particles to TZM-bl cells (cell-associated p24 ELISA); type: cell-based; details: 3 hs
Protocol: To further assess how SEVI might enhance HIV-1 infection we incubated TZM-bl cells for 3 hs with viral particles in the presence or absence of fibrilar PAP(248-286). Thereafter, unbound virus was removed by extensive washing and the amount of cell-associated p24 antigen was determined by ELISA. SEVI increased binding of HIV-1 to the target cells up to 8-fold in a dose-dependent manner (FIG. 17B, left).
as §1

HIV-1 NL4-3 [2] = test: HIV-1 replication in PBMC after low dose infection (p24 antigen ELISA); type: cell-based; details: 2 μg/ml SEVI
SIVagm-tan 1 = type: cell-based, SIV; details: TZM-bl
SIVcpz-tan 1 = type: cell-based, SIV; details: CEMX174 5.25 M7 cells
HIV-2 ROD10 = type: cell-based
HIV-1 NL4-3 [3] = type: cell-based; details: for luciferase activities increased compared to control cells containing no SEVI: 50 μg/ml peptide; for effect on HIV-1 infection (luciferase activities relative to no peptide): peptides 5 mg/ml shaken 20 h 37 °C, CEMX174 5.25 M7, 30 pg p24 HIV-1 NL4-3, 20 hours
Protocol: To analyze the effect of synthesized SEVI peptides on HIV infection, samples were resuspended in FBS free DMEM to yield a stock solution of 5 mg/ml and shacked for 20 h at 37° C. at 1400 rpm (rotations per minute) resulting in a turbid solution.
All peptides indicated in FIG. 7B were dissolved and incubated under the same conditions. […] In the presence of 50 μg/ml peptide, luciferase activities were increased about 30 fold compared to those from control cells containing no SEVI (FIG. 7A).
FIG. 7. Several synthetic PAP fragments stimulate HIV-1 infection. A) Lyophilized peptides were resuspended in DMEM without FBS and incubated for 20 h at 37° C. at 1,400 rpm using a thermo mixer (Eppendorf). […] After 20 h virus infection was detected using the Luciferase assay reagent (Promega). […] B) Shown are the peptide sequences analyzed.

TZM-bl cells = test: MTT cytotoxicity assay; type: cell-based; details: 3 days, high concentrations of SEVI
Protocol: The day after medium was replaced by 90 μl of fresh medium and SEVI [fibrilar […]] dilutions were added to a final volume of 100 μl. After 3 days 10 μl of a 5 mg/ml MTT (Sigma; # M2128) solution was added and cells were incubated for 4 h at 37° C. In living cells mitochondrial dehydrogenases […] the yellow MTT salt to blue formazan crystals (Schiff et al.; 1985). After dissolving the crystals in 1:1 Ethanol/DMSO, samples containing living cells appear blue whereas samples from dead cells are clear. Optical density (OD) was measured at 560/650 nm using a photometer (Molecular Devices).
FIG. 9. SEVI has no effect in cell viability or endogenous LTR activity. […] After 3 days 10 μl of a 5 mg/ml MTT solution was added and cells were incubated for 4 h at 37° C. Thereafter formazan crystals were dissolved in 1:1 Ethanol/DMSO and OD was measured at 560/650 nm. […] B) Endogenous LTR activity: After 3 days incubation with peptides endogenous LTR activity was measured using the Gal Screen Kit. Shown are median β-galactosidase activities±SD derived from 6 samples. RLU/s: relative light units per second.

[4] = tested on: NL4-3 V3 recombinant viruses and molecular HIV-1 clones; details: for infection more efficient than control cells without peptide: 0.4 μg/ml SEVI
[5] = tested on: HIV-1 NL4-3 (X4) and HIV-1 NL4-3 YU-2 (R5); test: Infection of TZM-bl cells with subinfectious virus doses (Gal Screen); type: cell-based; details: 2 μg/ml SEVI or more, 0.1 and 0.6 pg p24 of X4 and R5 tropic HIV, 3 days

GIHKQKEKSRLQGGVLVNEILNHMKRATQIPSYKKLIMY (Synthetic fragment of the PAP protein) [PAP(248-286)]
effect on NL4-3 infection (HIV-1 NL4-3 [1]): dose dependently promoted NL4-3 infection | effect on SIVmac infection (SIVmac239): favoured | viral infectivity enhanced in relation to the final peptide concentration in the infected culture (HIV-1; 5 min preincubation with virus stock): 50 fold | effect of diluting the HIV-1/SEVI mixture after preincubation (HIV-1; 5 min preincubation): did not at all reduce the magnitude of SEVI-mediated infectivity enhancement | binding of HIV-1 particles lacking Env (HIV-1 particles): enhanced binding of HIV-1 particles lacking Env | increase of binding of HIV-1 to the target cells (cell-associated p24) (HIV-1 particles; wildtype HIV-1, dose-dependent): up to 8 fold | virus replication (p24 antigen ELISA) (HIV-1 NL4-3 [2]; PBMC infected with 1.2 and 0.12 pg): virus only replicated in samples containing SEVI | virus replication (p24 antigen ELISA) (HIV-1 NL4-3 [2]; PBMC infected with 120 and 12 pg p24 antigen): replicated with faster kinetics and to higher levels than in control cells without peptide | effect on SIVagm infection (SIVagm-tan 1): favoured | effect on SIVcpz infection (SIVcpz-tan 1): favoured | increase of viral infection (HIV-2 ROD10; 50 μg/ml SEVI, TZM-bl infected with 2 μl of HIV-2): two orders of magnitude | effect on infection rates of HIV-2 (HIV-2 ROD10; TZM-bl): dose dependently enhanced infection rates | luciferase activities increased compared to control cells containing no SEVI (HIV-1 NL4-3 [3]): about 30 fold | effect on HIV-1 infection (luciferase activities relative to no peptide) (HIV-1 NL4-3 [3]): dose dependently enhanced HIV-1 infection

HKQKEKSRLQGGVLVNEILNHMKRATQIPSYKKLIMY [PAP(250-286)]
cell viability (MTT) (TZM-bl cells): not affected

KEKSRLQGGVLVNEILNHMKRATQIPSYKKLIMY (Synthetic fragment of the PAP protein) [PAP(253-286)]
infection more efficient than control cells without peptide ([4]; 93br025-9): 1.9 fold | infection more efficient than control cells without peptide ([4]; HIV-1 LAI): 2.7 fold | maximum infectivity compared to infected controls without peptide ([4]; higher concentrations, P51-S): 3,045% | effect on NL4-3 infection (HIV-1 NL4-3 [1]): dose dependently promoted NL4-3 infection | luciferase activities increased compared to control cells containing no SEVI (HIV-1 NL4-3 [3]): about 30 fold | effect on HIV-1 infection (luciferase activities relative to no peptide) (HIV-1 NL4-3 [3]): dose dependently enhanced HIV-1 infection

KQKEKSRLQGGVLVNEILNHMKRATQIPSYKKLIMY (Synthetic fragment of the PAP protein) [PAP(251-286)]
detection of infection (β-galactosidase activities) [5]: readily detectable | effect on NL4-3 infection (HIV-1 NL4-3 [1]): dose dependently promoted NL4-3 infection | luciferase activities increased compared to control cells containing no SEVI (HIV-1 NL4-3 [3]): about 30 fold | effect on HIV-1 infection (luciferase activities relative to no peptide) (HIV-1 NL4-3 [3]): dose dependently enhanced HIV-1 infection

QKEKSRLQGGVLVNEILNHMKRATQIPSYKKLIMY (Synthetic fragment of the PAP protein) [PAP(252-286)]
luciferase activities increased compared to control cells containing no SEVI (HIV-1 NL4-3 [3]): about 30 fold | effect on HIV-1 infection (luciferase activities relative to no peptide) (HIV-1 NL4-3 [3]): dose dependently enhanced HIV-1 infection
